Measurements reported in US20150284393A1, “METHODS FOR TREATING EYE DISORDERS” (PRISM PHARMA CO., LTD, priority 2012, published 2015).

What was measured:
[1] = system: rat model of laser-induced choroidal neovascularization; assay: rat model of laser-induced choroidal neovascularization (CNV); type: in vivo, Brown Norway rats; conditions: for average CNV lesion size vs vehicle controls: bilateral intravitreal on Days 3 and 10; for anti-angiogenic or vascular disruption activity: rat model of CNV, intravitreal
Description: The objective of this study was to assess the anti-angiogenic/vascular disrupting effects of Compound A, an alpha helix mimetic β-catenin inhibitor compound, and Compound C, the active metabolite of Compound A, in a rat model of laser-induced choroidal neovascularization. Compound A is 4-(((6S,9S,9aS)-1-(benzylcarbamoyl)-2,9-dimethyl-4,7-dioxo-8-(quinolin-8-ylmethyl)octahydro-1H-pyrazino[2,1-c][1,2,4]triazin-6-yl)methyl)phenyl dihydrogen phosphate. Compound C is (6S,9S,9aS)-N-benzyl-6-(4-hydroxybenzyl)-2,9-dimethyl-4,7-dioxo-8-(quinolin-8-ylmethyl)octahydro-1H-pyrazino[2,1-c][1,2,4]triazine-1-carboxamide.
For compound A, an 80 mg/ml solution of 4-(((6S,9S,9aS)-1-(benzylcarbamoyl)-2,9-dimethyl-4,7-dioxo-8-(quinolin-8-ylmethyl)octahydro-1H-pyrazino[2,1-c][1,2,4]triazin-6-yl)methyl)phenyl dihydrogen phosphate was prepared in sterile PBS. This solution was further diluted 1:4 to make a 20 mg/ml solution. The 20 mg/ml solution was diluted 1:4 to make a 5 mg/ml solution.
For compound C, a solution containing 0.5% NaCMC and 0.5% Polysorbate 80 (Tween 80) was prepared in USP grade water. 20 mg of (6S,9S,9aS)-N-benzyl-6-(4-hydroxybenzyl)-2,9-dimethyl-4,7-dioxo-8-(quinolin-8-ylmethyl)octahydro-1H-pyrazino[2,1-c][1,2,4]triazine-1-carboxamide was dissolved in 1 ml (using displacement pipette) of USP grade PEG400 in a glass vial. Slight heating and sonication/vortexing were performed if necessary. The glass vial containing the 20 mg/ml compound C solution was placed on a magnetic stir plate and an equal volume (1 ml) of the CMC/Tween 80 solution was added to the compound C/PEG400 solution (slowly in drop-wise fashion during continuous mixing with a stir bar). The resultant formulation was a clear solution containing 10 mg/ml compound C, 50% PEG400, 0.25% NaCMC, and 0.25% Tween 80.
Laser application to produce CNV lesions. Animals were dilated with 1% Cyclogyl solution and protected from light. Following observable dilation, the animals were sedated with ketamine/xylazine. The fundus of sedated animals was observed and recorded using a Micron III small animal funduscope (Phoenix Research). Laser treatments were performed using a thermal laser which is connected through the Micron III custom laser attachment. A total of 3 lesions per eye were placed using a wavelength of 520 nm.
Fundus images were recorded to confirm that the laser had successfully produced a bubble through the Bruch's membrane. It was expected that 5-10% of all laser spots would not develop any quantifiable CNV.
Intravitreal injections. Animals were anesthetized with ketamine/xylazine and the test compound was then injected in a volume of 5 μl into the vitreous through the pars plana using a Hamilton syringe and a 32 gauge needle. Following injection, the animals received an equal amount of topical antibiotic ointment on both eyes. Any eyes displaying signs of hemorrhage following laser application or intravitreal injection were excluded from analysis.
Fluorescein angiography. Animals were anesthetized with ketamine/xylazine and then received an IP injection of 10% Fluorescein Sodium at 1 μl/gram of body weight. Fundus images were then captured as 8-bitt TIFF files using the Micron III and exciter/barrier filters for a target wavelength of 488 nm. Standard color fundus photos were also captured for each eye.
Imaging and lesion quantification. All TIFF images were quantified using computerized image-analysis software (ImageJ, NIH, USA). Lesions were then individually traced free-hand in order to quantify the area in pixels and the color fundus photos were used as a reference for lesion location. Areas of avascularization in the center of lesions were excluded from area calculations. In the case of a hemorrhage or two lesions overlapping these lesions were excluded from analysis.
Statistical Analyses. Statistical Analyses were performed with Graphpad Prism software (version 5) using one-way analysis of variance (ANOVA) with a Tukey's post-hoc test for significance.
Animals. […]

[2] = system: rat model of proliferative vitreoretinopathy (PVR) following retinal detachment; assay: rat model of proliferative vitreoretinopathy (PVR) following retinal detachment; type: in vivo, Long Evans rats
Description: The objective of this study was to assess the anti-fibrotic efficacy of Compound A, an alpha helix mimetic β-catenin inhibitor compound, in a rat model of proliferative vitreoretinopathy (PVR) following retinal detachment. Compound A is 4-(((6S,9S,9aS)-1-(benzylcarbamoyl)-2,9-dimethyl-4,7-dioxo-8-(quinolin-8-ylmethyl)octahydro-1H-pyrazino[2,1-c][1,2,4]triazin-6-yl)methyl)phenyl dihydrogen phosphate.
The well defined normal consequences of retinal detachment in this animal model are the hyperproliferation of retinal glial cells (primarily Muller cells), the recruitment of immune cells, and the formation of glial scars. An effective treatment would result in less glial scarring.
Retinal detachments were created by infusing a dilute solution (0.25%) of Healon into the subretinal space of the right eyes in 16 Long Evans rats. Twenty (20) mg/ml of Compound A in 5 microliters were injected intravitreally immediately after the detachment surgery in 8 animals. The other 8 animals received an intravitreal injection of the vehicle as a control. The left eyes served as naive controls. Seven days after detachment, settling of the retina occurs causing folds to form in the retina. All animals were euthanized using CO2, 7 days after retinal detachment.
Following euthanasia, the retinas were fixed in 4% paraformaldehyde for 24 hours. Three retinal regions approximately 3 mm square were sampled from within each detached retina as well as from control retinas. The retinas were embedded in agarose and vibratomed at 100 microns in thickness. Sections were immunolabeled with antibodies to intermediate filament proteins (vimentin) and proliferating cells (phosphohistone H3). A marker for immune cells (isolectin B4) and a nuclear stain (Hoescht) was also used. All 4 probes were added to the same sections (i.e. quadruple labeling).
The sections were imaged using an Olympus FV1000 confocal microscope. Digital images were aquired and used to determine 1) the number and size of subretinal glial scars 2) the number of dividing cells and their cell type e.g. of immune or glial origin 3) whether microglia were “activated” and 4) if macrophages were present.
The data were analyzed using a two-tailed T-test. Mean differences with a P values less than 0.05 were considered significant.
Scar frequency was calculated by dividing the total number of scars noted in each retina by the total area examined. The average scar size/length was calculated by dividing the total scar length in a given retina by the total number of scars counted in that retina.
Immunohistochemistry. Qualitative assessment of animals (4 saline and 4 Compound A treated) were evaluated for glial scarring, cell proliferation, and immune cell infiltrates. Three retinal regions from rats 5-8 (PVR+saline) and 13-16 (PVR+Compound A) were excised from the eye, sectioned, and labeled with antibodies (˜25 sections from each eye were surveyed).

| SMILES | size of the lesions ([1]; 50 μg intravitreal) | average CNV lesion size vs vehicle controls ([1]; Day 15, 50 μg, p<0.05, FIG. 4A) | anti-angiogenic or vascular disruption activity [1] | average CNV lesion size vs vehicle controls ([1]; Day 15, 400 μg, p<0.01, FIG. 4A) | average CNV lesion size vs vehicle controls ([1]; Day 22, 100 μg, p<0.01, FIG. 4B) | CNV lesion size, dose effect ([1]; two higher tested doses (100 μg or 400 μg), 25 μg not significant) | dividing immune cells (immune cell response) following retinal detachment ([2]; 20 mg/ml in 5 microliters intravitreally immediately after detachment, 7 days after detachment, vs vehicle, FIG. 1A) | number of Muller cells/mm ([2]; 20 mg/ml in 5 microliters intravitreally, 7 days after detachment, two-tailed T-test, P<0.05 significant, FIG. 1C) | increase in number of proliferating glial cells following retinal detachment ([2]; 20 mg/ml in 5 microliters intravitreally, 7 days after detachment, vs vehicle, FIG. 1B) | increase in number of proliferating Muller cells following retinal detachment ([2]; 20 mg/ml in 5 microliters intravitreally, 7 days after detachment, vs vehicle, FIG. 1C) | increase in number of proliferating astrocytes following retinal detachment ([2]; 20 mg/ml in 5 microliters intravitreally, 7 days after detachment, vs vehicle, FIG. 1D) | frequency of glial scar formation (total number of scars / total area examined) ([2]; 20 mg/ml in 5 microliters intravitreally, 7 days after detachment, vs vehicle, FIG. 2A) | average scar size/length (total scar length / number of scars) ([2]; 20 mg/ml in 5 microliters intravitreally, 7 days after detachment, vs vehicle, FIG. 2B) | subretinal gliosis (glial scarring), vimentin labeled Muller cell processes extending into the subretinal space, immunohistochemistry ([2]; qualitative assessment, 4 treated animals (rats 13-16) vs 4 saline, FIGS. 3C-3D) |
| --- | --- | --- | --- | --- | --- | --- | --- | --- | --- | --- | --- | --- | --- | --- |
| C[C@H]1[C@H]2N(C(=O)CN(C)N2C(=O)NCc2ccccc2)[C@@H](Cc2ccc(O)cc2)C(=O)N1Cc1cccc2cccnc12 [Compound C, (6S,9S,9aS)-N-benzyl-6-(4-hydroxybenzyl)-2,9-dimethyl-4,7-dioxo-8-(quinolin-8-ylmethyl)octahydro-1H-pyrazino[2,1-c][1,2,4]triazine-1-carboxamide] | significant impact | statistically significant | demonstrated efficacy | – | – | – | – | – | – | – | – | – | – | – |
| C[C@H]1[C@H]2N(C(=O)CN(C)N2C(=O)NCc2ccccc2)[C@@H](Cc2ccc(OP(=O)(O)O)cc2)C(=O)N1Cc1cccc2cccnc12 [Compound A, 4-(((6S,9S,9aS)-1-(benzylcarbamoyl)-2,9-dimethyl-4,7-dioxo-8-(quinolin-8-ylmethyl)octahydro-1H-pyrazino[2,1-c][1,2,4]triazin-6-yl)methyl)phenyl dihydrogen phosphate] | – | – | demonstrated efficacy | statistically significant | demonstrated significance | demonstrated statistical significance | did not have any effect | significantly affected | largely attenuated | largely attenuated | largely attenuated | significantly reduced | significant reduction | no glial scarring was noted |
